Measured values taken from the supplement of paper PMC12137928.
Counter-ions that a name gives are not always drawn.

System: HCT116
Settings: 72 h
In short: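 HCT116 cells went into 1536-well plates at 250 per well. CellTiter-Glo luminescence was expressed relative to vehicle (0%) and positive control (-100%) and then pattern-corrected. Both IC50 and maximal efficacy were taken from four-parameter Hill fits.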

Row | Compound | IC50 cell viability (ICRF193 0 nM) | IC50 cell viability (ICRF193 200 nM)
1 | CC1(C)[C@@H](OC(=O)CCC(=O)O)CC[C@]2(C)[C@H]3C(=O)C=C4[C@@H]5C[C@@](C)(C(=O)O)CC[C@]5(C)CC[C@@]4(C)[C@]3(C)CC[C@@H]12 [Carbenoxolone sodium] | > 45.8 µM | > 45.8 µM
2 | CCN(CC)CCOCCOC(=O)C1(c2ccccc2)CCCC1 [Carbetapentane] | > 45.8 µM | > 45.8 µM
3 | CCOC(=O)n1ccn(C)c1=S [Carbimazole] | > 45.8 µM | > 45.8 µM
4 | N[C@@H](CSCC(=O)O)C(=O)O [Carbocysteine] | > 45.8 µM | > 45.8 µM
5 | COC(COC(N)=O)C1=C(N2CC2)C(=O)C(C)=C(N2CC2)C1=O (centres undefined) [Carboquone] | > 45.8 µM | > 45.8 µM
6 | CN(C)C(=O)N[C@H]1CC[C@H](CCN2CCN(c3cccc(Cl)c3Cl)CC2)CC1 [Cariprazine] | > 45.8 µM | > 45.8 µM
7 | O=NN(CCCl)C(=O)NCCCl [Carmustine] | > 45.8 µM | > 45.8 µM
8 | COC(=O)CCC[N+](C)(C)C [Carpronium chloride] | > 45.8 µM | > 45.8 µM
9 | CC(=O)OCC1=C(C(=O)O)N2C(=O)[C@@H](NC(=O)CC#N)[C@H]2SC1 [Cefacetrile] | > 45.8 µM | > 45.8 µM
10 | Cc1nnc(SCC2=C(C(=O)O)N3C(=O)[C@@H](NC(=O)Cn4cnnn4)[C@H]3SC2)s1 [Cefazolin] | > 45.8 µM | > 45.8 µM
11 | CCN1CCN(C(=O)N[C@@H](C(=O)N[C@]2(OC)C(=O)N3C(C(=O)O)=C(CSc4nnnn4C)CS[C@@H]32)[C@H](C)O)C(=O)C1=O [Cefbuperazone] | > 45.8 µM | > 45.8 µM
12 | CC/C=C(\C(=O)N[C@@H]1C(=O)N2C(C(=O)OCOC(=O)C(C)(C)C)=C(COC(N)=O)CS[C@H]12)c1csc(N)n1 [Cefcapene pivoxil hydrochloride] | > 45.8 µM | > 45.8 µM
13 | C=CC1=C(C(=O)O)N2C(=O)[C@@H](NC(=O)/C(=N\O)c3csc(N)n3)[C@H]2SC1 [Cefdinir] | > 45.8 µM | > 45.8 µM
14 | CO/N=C(\C(=O)N[C@@H]1C(=O)N2C(C(=O)OCOC(=O)C(C)(C)C)=C(/C=C\c3scnc3C)CS[C@H]12)c1csc(N)n1 [Cefditoren (Pivoxil)] | > 45.8 µM | > 45.8 µM
15 | CO/N=C(/C(=O)N[C@@H]1C(=O)N2C(C(=O)OCOC(=O)C(C)(C)C)=C(C)CS[C@H]12)c1csc(N)n1 [Cefetamet pivoxil HCl] | > 45.8 µM | > 45.8 µM
16 | C=CC1=C(C(=O)O)N2C(=O)[C@@H](NC(=O)/C(=N\OCC(=O)O)c3csc(N)n3)[C@H]2SC1 [Cefixime] | > 45.8 µM | > 45.8 µM
17 | CO[C@@]1(NC(=O)CSCC#N)C(=O)N2C(C(=O)O)=C(CSc3nnnn3C)CS[C@@H]21 [Cefmetazole sodium] | > 45.8 µM | > 45.8 µM
18 | CO[C@@]1(NC(=O)CSC[C@@H](N)C(=O)O)C(=O)N2C(C(=O)O)=C(CSc3nnnn3C)CS[C@@H]21 [Cefminox sodium] | > 45.8 µM | > 45.8 µM
19 | CO/N=C(\C(=O)N[C@@H]1C(=O)N2C(C(=O)[O-])=C(C[n+]3ccc(N)n3CCO)CS[C@H]12)c1csc(N)n1 [Cefoselis (sulfate)] | > 45.8 µM | > 45.8 µM
20 | CO/N=C(\C(=O)N[C@@H]1C(=O)N2C(C(=O)O)=C(COC(C)=O)CS[C@H]12)c1csc(N)n1 [Cefotaxime sodium salt] | > 45.8 µM | > 45.8 µM
21 | CN(C)CCn1nnnc1SCC1=C(C(=O)O)N2C(=O)[C@@H](NC(=O)Cc3csc(N)n3)[C@H]2SC1 [Cefotiam hydrochloride] | > 45.8 µM | > 45.8 µM
22 | CO[C@@]1(NC(=O)Cc2cccs2)C(=O)N2C(C(=O)O)=C(COC(N)=O)CS[C@@H]21 [Cefoxitin] | > 45.8 µM | > 45.8 µM
23 | CO/N=C(\C(=O)N[C@@H]1C(=O)N2C(C(=O)O)=C(Cn3nnc(C)n3)CS[C@H]12)c1csc(N)n1 [Cefteram] | > 45.8 µM | > 45.8 µM
24 | O=C(Cn1cnnn1)N[C@@H]1C(=O)N2C(C(=O)O)=C(CSc3nncs3)CS[C@H]12 [Ceftezole sodium] | > 45.8 µM | > 45.8 µM
25 | CO/N=C(\C(=O)N[C@@H]1C(=O)N2C(C(=O)O)=C(CSc3nc(=O)c(O)nn3C)CS[C@H]12)c1csc(N)n1 [Ceftriaxone disodium trihydrate] | > 45.8 µM | > 45.8 µM
26 | CO/N=C(\C(=O)N[C@@H]1C(=O)N2C(C(=O)OC(C)OC(C)=O)=C(COC(N)=O)CS[C@H]12)c1ccco1 (some centres undefined) [Cefuroxime Axetil] | > 45.8 µM | > 45.8 µM
27 | CC(=O)N[C@H](Cc1ccc2ccccc2c1)C(=O)N[C@H](Cc1ccc(Cl)cc1)C(=O)N[C@H](Cc1cccnc1)C(=O)N[C@@H](CO)C(=O)N[C@@H](Cc1ccc(O)cc1)C(=O)N[C@H](CCCNC(N)=O)C(=O)N[C@@H](CC(C)C)C(=O)N[C@@H](CCCNC(=N)N)C(=O)N1CCC[C@H]1C(=O)N[C@H](C)C(N)=O [Cetrorelix] | > 45.8 µM | > 45.8 µM

Continued, values first:

Row | IC50 cell viability (ICRF193 0 nM) | IC50 cell viability (ICRF193 200 nM) | Compound
28 | > 45.8 µM | > 45.8 µM | C[C@@](Cc1ccc(O)c(O)c1)(NN)C(=O)O [Carbidopa]
29 | > 45.8 µM | > 45.8 µM | CN(C)CCOC(c1ccc(Cl)cc1)c1ccccn1 (centres undefined) [Carbinoxamine maleate]
30 | > 45.8 µM | > 45.8 µM | CC(C(=O)O)c1ccc2c(c1)[nH]c1ccc(Cl)cc12 (centres undefined) [Carprofen]
31 | > 45.8 µM | > 45.8 µM | CC(C)(C)NCC(O)COc1cccc2c1CCC(=O)N2 (centres undefined) [Carteolol hydrochloride]
32 | > 45.8 µM | > 45.8 µM | CC[C@H](C)C[C@H](C)CCCCCCCCC(=O)N[C@H]1C[C@@H](O)[C@@H](NCCN)NC(=O)[C@@H]2[C@@H](O)CCN2C(=O)[C@H]([C@H](O)CCN)NC(=O)[C@H]([C@H](O)[C@@H](O)c2ccc(O)cc2)NC(=O)[C@@H]2C[C@@H](O)CN2C(=O)[C@H]([C@@H](C)O)NC1=O [Caspofungin Acetate]
33 | > 45.8 µM | > 45.8 µM | CC1=C(C(=O)O)N2C(=O)[C@@H](NC(=O)[C@H](N)c3ccc(O)cc3)[C@H]2SC1 [Cefadroxil]
34 | > 45.8 µM | > 45.8 µM | NC(=O)c1cc[n+](CC2=C(C(=O)[O-])N3C(=O)[C@@H](NC(=O)Cc4cccs4)[C@H]3SC2)cc1 [Cefalonium]
35 | > 45.8 µM | > 45.8 µM | Cn1nnnc1SCC1=C(C(=O)O)N2C(=O)[C@@H](NC(=O)[C@H](OC=O)c3ccccc3)[C@H]2SC1 [Cefamandole (nafate)]
36 | > 45.8 µM | > 45.8 µM | N[C@@H](C(=O)N[C@@H]1C(=O)N2C(C(=O)O)=C(CSc3c[nH]nn3)CS[C@H]12)c1ccc(O)cc1 [Cefatrizine]
37 | > 45.8 µM | > 45.8 µM | CCN1CCN(C(=O)N[C@@H](C(=O)N[C@@H]2C(=O)N3C(C(=O)O)=C(CSc4nnnn4C)CS[C@H]23)c2ccc(O)cc2)C(=O)C1=O [Cefoperazone sodium]
38 | > 45.8 µM | > 45.8 µM | NCc1ccccc1CC(=O)N[C@@H]1C(=O)N2C(C(=O)O)=C(CSc3nnnn3CC(=O)O)CS[C@H]12 [Ceforanide]
39 | > 45.8 µM | > 45.8 µM | CO/N=C(\C(=O)N[C@@H]1C(=O)N2C(C(=O)[O-])=C(C[n+]3ccn4ncccc43)CS[C@H]12)c1nsc(N)n1 [Cefozopran hydrochloride]
40 | > 45.8 µM | > 45.8 µM | Cc1cc(O)c(C(=O)N[C@@H](C(=O)N[C@@H]2C(=O)N3C(C(=O)O)=C(CSc4nnnn4C)CS[C@H]23)c2ccc(O)cc2)cn1 [Cefpiramide (sodium)]
41 | > 45.8 µM | > 45.8 µM | CC=CC1=C(C(=O)O)N2C(=O)[C@@H](NC(=O)[C@H](N)c3ccc(O)cc3)[C@H]2SC1 [Cefprozil]
42 | > 45.8 µM | > 45.8 µM | COC1=C(C(=O)O)N2C(=O)[C@@H](NC(=O)[C@H](N)C3=CCC=CC3)[C@H]2SC1 [Cefroxadine]
43 | > 45.8 µM | > 45.8 µM | NC(=O)c1cc[n+](CC2=C(C(=O)[O-])N3C(=O)[C@@H](NC(=O)[C@@H](c4ccccc4)S(=O)(=O)O)[C@H]3SC2)cc1 [Cefsulodin Sodium Salt]
44 | > 45.8 µM | > 45.8 µM | CC(C)(O/N=C(\C(=O)N[C@@H]1C(=O)N2C(C(=O)[O-])=C(C[n+]3ccccc3)CS[C@H]12)c1csc(N)n1)C(=O)O [Ceftazidime]
45 | > 45.8 µM | > 45.8 µM | CO/N=C(\C(=O)N[C@@H]1C(=O)N2C(C(=O)O)=C(CSc3cnns3)CS[C@H]12)c1csc(N)n1 [Cefuzonam hydrochloride]
46 | > 45.8 µM | > 45.8 µM | CCN(CC)C(=O)Nc1ccc(OCC(O)CNC(C)(C)C)c(C(C)=O)c1 (centres undefined) [Celiprolol hydrochloride]
47 | > 45.8 µM | > 45.8 µM | CC1=C(C(=O)O)N2C(=O)[C@@H](NC(=O)[C@H](N)c3ccccc3)[C@H]2SC1 [Cephalexin]
48 | > 45.8 µM | > 45.8 µM | O=C(Cc1cccs1)N[C@@H]1C(=O)N2C(C(=O)[O-])=C(C[n+]3ccccc3)CS[C@H]12 [Cephaloridine]
49 | > 45.8 µM | > 45.8 µM | CC(=O)OCC1=C(C(=O)O)N2C(=O)[C@@H](NC(=O)Cc3cccs3)[C@H]2SC1 [Cephalothin]
50 | > 45.8 µM | > 45.8 µM | CC(=O)OCC1=C(C(=O)O)N2C(=O)[C@@H](NC(=O)CSc3ccncc3)[C@H]2SC1 [Cephapirin sodium]
51 | > 45.8 µM | > 45.8 µM | CCCCCCCCCCCCCCCCOc1nc2ccc(C)cc2c(=O)o1 [Cetilistat]
52 | > 45.8 µM | > 45.8 µM | NC[C@H]1CC[C@H](C(=O)Oc2ccc(CCC(=O)O)cc2)CC1 [Cetraxate hydrochloride]
